In patent US9321760B2 (Merck Patent GmbH, priority 2011, dated 2016) one finds IC50 data, which are given here for 34 compounds.

The IC50 is the midpoint of a concentration-inhibition curve.

For this test, the target named is P70S6K (T412E mutant) (Homo sapiens (Human), UniProt P23443, T412E). The test can be described thus: P70S6K enzyme assay. The test is classed as biochemical. As to conditions: 3 nM P70S6K T412E mutant, 24 μM ATP, 1 μM FITC-AHA-AKRRRLSSLRA-OH substrate peptide, 90 min at 25° C. In short, it runs like this: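 P70S6K T412E mutant (3 nM) with 24 μM ATP and 1 μM FITC-labelled S6-derived peptide in Hepes pH 7.5, MgCl2, DTT, Brij buffer; 90 min at 25° C, stopped with EDTA. Phosphorylated product and substrate peptides separated by microfluidic mobility shift; IC50 values derived.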
P70S6K (T412E mutant), sequence (P23443 whole entry T412E): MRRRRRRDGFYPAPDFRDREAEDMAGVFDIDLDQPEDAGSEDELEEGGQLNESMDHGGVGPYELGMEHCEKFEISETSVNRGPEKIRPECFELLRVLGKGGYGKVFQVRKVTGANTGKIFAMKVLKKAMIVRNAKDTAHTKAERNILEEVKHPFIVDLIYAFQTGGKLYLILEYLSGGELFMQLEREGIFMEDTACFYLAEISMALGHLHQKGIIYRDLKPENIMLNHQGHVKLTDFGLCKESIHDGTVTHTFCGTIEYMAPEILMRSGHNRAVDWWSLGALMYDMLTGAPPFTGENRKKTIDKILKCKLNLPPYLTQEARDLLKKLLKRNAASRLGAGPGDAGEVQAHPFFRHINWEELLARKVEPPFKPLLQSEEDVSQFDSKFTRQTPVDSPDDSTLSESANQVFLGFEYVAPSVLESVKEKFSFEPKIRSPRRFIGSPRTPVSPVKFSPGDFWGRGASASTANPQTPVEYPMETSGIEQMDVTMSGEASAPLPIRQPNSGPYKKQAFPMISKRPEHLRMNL

Turning to `N#Cc1cccc([C@@H](CN2CCC2)N2CCN(c3ncnc(N)c3-c3ccc(F)cc3)CC2)c1` [Example 125, 3-((S)-1-{4-[6-Amino-5-(4-fluoro-phenyl)-pyrimidin-4-yl]-piperazin-1-yl}-2-azetidin-1-yl-ethyl)-benzonitrile], the concentration for half-maximal inhibition (IC50) turned out to be 1.2 µM. This lies in the single-digit micromolar range.

`Nc1ncnc(N2CCN(C(CN3CCC3)c3cccc(Cl)c3Cl)CC2)c1-c1cn[nH]c1` (stereo not shown) [Example 126, 6-{4-[2-Azetidin-1-yl-1-(2,3-dichloro-phenyl)-ethyl]-piperazin-1-yl}-5-(1H-pyrazol-4-yl)-pyrimidin-4-ylamine] had an IC50 of 0.39 µM.

With `Nc1ncnc(N2CCN(C(CN3CCC3)c3ccc(C(F)(F)F)c(F)c3)CC2)c1-c1cn[nH]c1` (stereo not shown) [Example 127, 6-{4-[2-Azetidin-1-yl-1-(3-fluoro-4-trifluoromethyl-phenyl)-ethyl]-piperazin-1-yl}-5-(1H-pyrazol-4-yl)-pyrimidin-4-ylamine], the half-maximal inhibitory concentration (IC50) stood at 0.55 µM.

As for `CS(=O)(=O)c1ccc(C(CN2CCC2)N2CCN(c3ncnc(N)c3-c3ccc(F)cc3)CC2)cc1` (stereo not shown) [Example 128, 6-{4-[2-Azetidin-1-yl-1-(4-methanesulfonyl-phenyl)-ethyl]-piperazin-1-yl}-5-(4-fluoro-phenyl)-pyrimidin-4-ylamine], the IC50 was 0.28 µM.

Consider `N#Cc1cccc([C@H](CN2CCC2)N2CCN(c3ncnc(N)c3-c3ccc(F)cc3)CC2)c1` [Example 129, 3-((R)-1-{4-[6-Amino-5-(4-fluoro-phenyl)-pyrimidin-4-yl]-piperazin-1-yl}-2-azetidin-1-yl-ethyl)-benzonitrile], for which inhibition was half-maximal at 0.61 µM (IC50).

Turning to `COC(=O)Cn1cc(-c2c(N)ncnc2N2CCN(C(CN3CCC3)c3cccc(C#N)c3)CC2)cn1` (stereo not shown) [Example 130, [4-(4-Amino-6-{4-[2-azetidin-1-yl-1-(3-cyano-phenyl)-ethyl]-piperazin-1-yl}-pyrimidin-5-yl)-pyrazol-1-yl]-acetic acid methyl ester], the concentration for half-maximal inhibition (IC50) is above 100 µM.

`Nc1ncnc(N2CCN(C(CN3CCC3)c3ccc(Cl)c(Cl)c3)CC2)c1-c1cn[nH]c1` (stereo not shown) [Example 131, 6-{4-[2-Azetidin-1-yl-1-(3,4-dichloro-phenyl)-ethyl]-piperazin-1-yl}-5-(1H-pyrazol-4-yl)-pyrimidin-4-ylamine] had a concentration for half-maximal inhibition (IC50) of 1.5 µM. That is a single-digit micromolar value.

On to `Nc1ncnc(N2CCN(C(CN3CCC3)c3ccc(Cl)c(C(F)(F)F)c3)CC2)c1-c1cn[nH]c1` (stereo not shown) [Example 132, 6-{4-[2-Azetidin-1-yl-1-(4-chloro-3-trifluoromethyl-phenyl)-ethyl]-piperazin-1-yl}-5-(1H-pyrazol-4-yl)-pyrimidin-4-ylamine], for which half-maximal inhibition (IC50) required 1.4 µM.

Regarding `Nc1ncnc(N2CCN(C(CN3CCC3)c3ccc(Cl)c(Cl)c3)CC2)c1-c1ccc(N2CCNCC2)nc1` (stereo not shown) [Example 133, 6-{4-[2-Azetidin-1-yl-1-(3,4-dichloro-phenyl)-ethyl]-piperazin-1-yl}-5-(6-piperazin-1-yl-pyridin-3-yl)-pyrimidin-4-ylamine], the half-inhibitory concentration (IC50) is above 100 µM.

`Nc1ncnc(N2CCN(C(CN3CCC3)c3cccc(C(F)(F)F)c3Cl)CC2)c1-c1cn[nH]c1` (stereo not shown) [Example 134, 6-{4-[2-Azetidin-1-yl-1-(2-chloro-3-trifluoromethyl-phenyl)-ethyl]-piperazin-1-yl}-5-(1H-pyrazol-4-yl)-pyrimidin-4-ylamine] came in with an IC50 of 0.3 µM. That is a sub-micromolar value.

In turn, `Nc1ncnc(N2CCN(C(CN3CCC3)c3ccc(F)c(Cl)c3)CC2)c1-c1cn[nH]c1` (stereo not shown) [Example 135, 6-{4-[2-Azetidin-1-yl-1-(3-chloro-4-fluoro-phenyl)-ethyl]-piperazin-1-yl}-5-(1H-pyrazol-4-yl)-pyrimidin-4-ylamine] returned an IC50 of 3.6 µM.

The compound `Nc1ncnc(N2CCN(C(CN3CCC3)c3ccc(F)cc3Cl)CC2)c1-c1cn[nH]c1` (stereo not shown) [Example 137, 6-{4-[2-Azetidin-1-yl-1-(2-chloro-4-fluoro-phenyl)-ethyl]-piperazin-1-yl}-5-(1H-pyrazol-4-yl)-pyrimidin-4-ylamine] yielded a half-inhibitory concentration (IC50) of 3.1 µM.

As to `Nc1ncnc(N2CCC(C(O)c3ccc(Cl)cc3)CC2)c1-c1ccc(F)cc1` (stereo not shown) [Example 138], the half-inhibitory concentration (IC50) was found to be 0.0025 µM. Compared with the last compound, the IC50 is about 1200-fold lower.

In turn, `Nc1ncnc(N2CCC(C(O)c3ccc(-c4ccc(F)cc4)cc3)CC2)c1-c1ccc(F)cc1` (stereo not shown) [Example 139] yielded an IC50 of 0.017 µM.

`Nc1ncnc(N2CCC(C(O)c3ccc(F)cc3)CC2)c1-c1ccc(F)cc1` (stereo not shown) [Example 140] displayed an IC50 of 0.0046 µM. Compared with the last compound, the IC50 is about 3.7-fold lower.

In turn, `C=Cc1c(N)ncnc1N1CCC(C(O)c2ccc(F)cc2)CC1` (stereo not shown) [Example 141, 1-6-amino-5-(vinylpyrimidin-4-yl)piperidin-4-yl-4-(fluorophenyl)methanol] returned an IC50 of 1 µM.

With `Nc1ncnc(N2CCC(C(NC3CCCC3)c3ccc(F)cc3)CC2)c1-c1ccc(F)cc1` (stereo not shown) [Example 145, 6-(4-((cyclopentylamino)(4-fluorophenyl)methyl)piperidin-1-yl)-5-(4-fluorophenyl)pyrimidin-4-amine], the IC50 is 0.12 µM.

Turning to `Nc1ncnc(N2CCC(C(OCCN3CCCC3)c3ccc(F)cc3)CC2)c1-c1ccc(F)cc1` (stereo not shown) [Example 146, 5-(4-fluoropheny)6-(4-((4-fluorophenyl)(2-(pyrrolidin-1-yl)ethoxy)methyl)-piperidin-1-yl)pyrimidin-4-amine], it took 0.011 µM to reach half-maximal inhibition (IC50).

As to `CN(C)CCOC(c1ccc(F)cc1)C1CCN(c2ncnc(N)c2-c2ccc(F)cc2)CC1` (stereo not shown) [Example 147, 5-(4-fluorophenyl)6-(4-((4-fluorophenyl)(2-(dimethlyamino)ethoxy)methyl)piperidin-1-yl)pyrimidin-4-amine], the midpoint of inhibition, the IC50, lay at 0.002 µM.

The compound `Nc1ncnc(N2CCC(C(c3ccc(F)cc3)N3CCCC3)CC2)c1-c1ccc(F)cc1` (stereo not shown) [Example 148, 5-(4-fluoropheny)-6-(4-((4-fluorophenyl)(pyrrolidin-1-yl)methyl)piperidin-1-yl)pyrimidin-4-amine] had a half-inhibitory concentration (IC50) of 0.25 µM.

For `Nc1ncnc(N2CCC(C(c3ccc(F)cc3)N3CCC(F)(F)C3)CC2)c1-c1ccc(F)cc1` (stereo not shown) [Example 149, 5-(4-fluoropheny)-6-(4-((4-fluorophenyl)(3-difluoropyrrolidin-1-yl)methyl)piperidin-1-yl)pyrimidin-4-amine], the IC50 stood at 0.46 µM.

`CN(C)CCNC(c1ccc(F)cc1)C1CCN(c2ncnc(N)c2-c2ccc(F)cc2)CC1` (stereo not shown) [Example 150, 1-(6-amino-5-(4-fluorophenyl)pyrimidin-4-yl)(4-((4-fluorophenyl))methyl)-dimethylethane-1,2-diamine] gave an IC50 of 0.033 µM.

In turn, `Nc1ncnc(N2CCC(C(NCC3CCNCC3)c3ccc(F)cc3)CC2)c1-c1ccc(F)cc1` (stereo not shown) [Example 151] returned an IC50 of 0.2 µM.

In the case of `N#CC(c1cccc(C(F)(F)F)c1)N1CCN(c2ncnc(N)c2-c2ccc(F)cc2)CC1` (stereo not shown) [Example 152, {4-[6-Amino-5-(4-fluoro-phenyl)-pyrimidin-4-yl]-piperazin-1-yl}-(3-trifluoromethyl-phenyl)-acetonitrile], the IC50 was above 1 µM.

Take `NCC(c1cccc(C(F)(F)F)c1)N1CCN(c2ncnc(N)c2-c2ccc(F)cc2)CC1` (stereo not shown) [Example 153, 6-{4-[2-Amino-1-(3-trifluoromethyl-phenyl)-ethyl]-piperazin-1-yl}-5-(4-fluoro-phenyl)-pyrimidin-4-ylamine]: the concentration for half-maximal inhibition (IC50) turned out to be 0.011 µM.

In the case of `N#CC(c1ccc(F)c(C(F)(F)F)c1)N1CCN(c2ncnc(N)c2-c2ccc(F)cc2)CC1` (stereo not shown) [Example 154, {4-[6-Amino-5-(4-fluoro-phenyl)-pyrimidin-4-yl]-piperazin-1-yl}-(4-fluoro-3-trifluoromethyl-phenyl)-acetonitrile], the 50% inhibitory concentration (IC50) is above 1 µM.

Regarding `NCC(c1ccc(F)c(C(F)(F)F)c1)N1CCN(c2ncnc(N)c2-c2ccc(F)cc2)CC1` (stereo not shown) [Example 155, 6-{4-[2-Amino-1-(4-fluoro-3-trifluoromethyl-phenyl)-ethyl]-piperazin-1-yl}-5-(4-fluoro-phenyl)-pyrimidin-4-ylamine], half-maximal inhibition (IC50) required 0.014 µM. In other words, the double-digit nanomolar range.

Take `N#CC(c1ccc(Cl)c(Cl)c1)N1CCN(c2ncnc(N)c2-c2ccc(F)cc2)CC1` (stereo not shown) [Example 156, {4-[6-Amino-5-(4-fluoro-phenyl)-pyrimidin-4-yl]-piperazin-1-yl}-(3,4-dichloro-phenyl)-acetonitrile]: half-maximal inhibition (IC50) required 0.13 µM.

`NCC(c1ccc(Cl)c(Cl)c1)N1CCN(c2ncnc(N)c2-c2ccc(F)cc2)CC1` (stereo not shown) [Example 157, 6-{4-[2-Amino-1-(3,4-dichloro-phenyl)-ethyl]-piperazin-1-yl}-5-(4-fluoro-phenyl)-pyrimidin-4-ylamine] came in with a half-inhibitory concentration (IC50) of 0.006 µM.

As for `N#CC(c1ccc(F)cc1)N1CCN(c2ncnc(N)c2-c2ccc(F)cc2)CC1` (stereo not shown) [Example 158, {4-[6-Amino-5-(4-fluoro-phenyl)-pyrimidin-4-yl]-piperazin-1-yl}-(4-fluoro-phenyl)-acetonitrile], the IC50 is 0.24 µM.

Compound `NCC(c1ccc(F)cc1)N1CCN(c2ncnc(N)c2-c2ccc(F)cc2)CC1` (stereo not shown) [Example 159, 6-{4-[2-Amino-1-(4-fluoro-phenyl)-ethyl]-piperazin-1-yl}-5-(4-fluoro-phenyl)-pyrimidin-4-ylamine] registered a half-inhibitory concentration (IC50) of 0.0044 µM. Compared with the last compound, the IC50 is about 55-fold lower.

`N#CC(c1ccc(F)c(Cl)c1)N1CCN(c2ncnc(N)c2-c2ccc(F)cc2)CC1` (stereo not shown) [Example 160, {4-[6-Amino-5-(4-fluoro-phenyl)-pyrimidin-4-yl]-piperazin-1-yl}-(3-chloro-4-fluoro-phenyl)-acetonitrile] yielded an IC50 of 0.59 µM. This IC50 lies about 130-fold higher than the previous one.

`NCC(c1ccc(F)c(Cl)c1)N1CCN(c2ncnc(N)c2-c2ccc(F)cc2)CC1` (stereo not shown) [Example 161, 6-{4-[2-Amino-1-(3-chloro-4-fluoro-phenyl)-ethyl]-piperazin-1-yl}-5-(4-fluoro-phenyl)-pyrimidin-4-ylamine] had an IC50 of 0.004 µM.

With `N#CC(c1ccc(Cl)cc1)N1CCN(c2ncnc(N)c2-c2ccc(F)cc2)CC1` (stereo not shown) [Example 162, {4-[6-Amino-5-(4-fluoro-phenyl)-pyrimidin-4-yl]-piperazin-1-yl}-(4-chloro-phenyl)-acetonitrile], the IC50 was 0.068 µM.
